Reference: paper PMC12040169 (PLOS Biology, 2025)

Assay: in vitro
Conditions: human, hela cells, % viability

Compared with `Cc1cc(Cl)c(OCCNCCO)c(Br)c1` [CBK265066G], `Cc1cc(Cl)c(OCCNCCN)c(Br)c1` [CBK265079] is lower in viability at 28.5 h, 10 µM: 122% for the first, 91.5% for the second.

Going from `Cc1cccc(OCC(=O)NC(=S)Nc2cccc(C(=O)O)c2C)c1` [CBK265067] to `Cc1c(NC(=S)NC(=O)COc2ccc(Cl)cc2)cccc1C(=O)O` [CBK265070], the viability at 28.5 h, 10 µM rises from 96.3% to 103%.

Compared with `Cc1ccc(C(=O)NC(=S)Nc2ccc(C(=O)O)c(Cl)c2)cc1Cl` [CBK265068], `COc1ccc(C(=O)O)cc1NC(=S)NC(=O)c1ccc(-c2cc(Cl)ccc2Cl)o1` [CBK265074] is higher in viability at 28.5 h, 10 µM: 95% for the first, 104% for the second.

First: COc1cc(/C=C2\N=C(c3cc(Cl)ccc3OC)OC2=O)ccc1OC(=O)c1ccccc1 [CBK265069]
Second: COc1ccccc1-c1coc2cc(OC(=O)c3c(C)oc4ccc(OC(C)=O)cc34)ccc2c1=O [CBK265191]
The viability at 28.5 h, 10 µM of the first is higher: 104% for the first, 92% for the second.

Compared with `Cc1cc(Br)c2c(c1)C(O)(N1CCCCC1C)C(=O)N2` (stereo not drawn) [CBK265071], `Cc1cc(OCC(=O)NCCCN2CCOCC2)cc(C)c1Br` [CBK265082] is higher in viability at 28.5 h, 10 µM: 97.9% for the first, 99.9% for the second.

First: O=C(CN1CCOCC1)Nc1sc2c(c1C(=O)Nc1ccc(Br)cc1)CCC2 [CBK265073]
Second: CCOC(=O)c1c(NC(=O)CN2CC(C)OC(C)C2)sc2c1CCCC2 (stereo not drawn) [CBK265216]
The viability at 28.5 h, 10 µM of the first is higher: 111% for the first, 103% for the second.

First: CN1CCN(CCCOc2ccc(OCc3ccccc3)cc2)CC1 [CBK265077]
Second: O=C(O)C1N(Cc2ccccc2)CCCN1Cc1ccccc1 [CBK265196]
The viability at 28.5 h, 10 µM of the first is lower: 98.2% for the first, 111% for the second.

Compared with `CCCSc1nnc(-c2ccccc2NC(=O)CC)c(O)n1` [CBK265081], `N/C(=N/OCC(=O)Nc1cccc2ccccc12)c1nonc1N` [CBK265234] is lower in viability at 28.5 h, 10 µM: 92.8% for the first, 90.6% for the second.

Going from `Cc1cccc(C(C)(C)C)c1OCCn1ccnc1` [CBK265084] to `Cc1cccc(C(C)(C)C)c1OCCCCNCCN` [CBK265092G], the viability at 28.5 h, 10 µM rises from 109% to 110%.

First: COc1cccc(OC)c1OCCN1CCNCC1 [CBK265089G]
Second: COc1cc(CN2CCN(C(=O)c3cccnc3)CC2)cc(OC)c1O [CBK265210G]
The viability at 28.5 h, 10 µM of the first is higher: 90.7% for the first, 85.2% for the second.

Going from `Nn1c(SCC(=O)Nc2ccc3c(c2)oc2ccccc23)nnc1-c1ccc(Cl)cc1Cl` [CBK265090] to `COc1cc2c(cc1NC(=O)CSc1nc3ccccc3[nH]1)oc1ccccc12` [CBK265153], the viability at 28.5 h, 10 µM rises from 91.7% to 100%.

First: Cc1cc(OCC(=O)Nc2ccccc2CO)cc(C)c1Br [CBK265094]
Second: CC(C)C(=O)Nc1cccc(NC(=O)COc2ccc(Br)cc2)c1 [CBK265211]
The viability at 28.5 h, 10 µM of the first is lower: 88.2% for the first, 94% for the second.

Compared with `Cc1ccc(OCCCCNCCN)c(Br)c1` [CBK265099G], `Cc1ccc(C(=O)Nc2cccc3cccnc23)cc1Br` [CBK265189] is higher in viability at 28.5 h, 10 µM: 85.1% for the first, 102% for the second.

First: Cc1ccccc1N1C(=O)/C(=C/c2cn(Cc3ccccc3[N+](=O)[O-])c3ccccc23)SC1=S [CBK265101]
Second: COc1ccc(-c2nn(-c3ccccc3)cc2/C=C2/SC(=S)N(Cc3ccccc3)C2=O)c(C)c1 [CBK265107]
The viability at 28.5 h, 10 µM of the first is higher: 101% for the first, 93.7% for the second.

First: N/C(=N\OC(=O)c1cc(-c2ccccc2)nc2ccccc12)c1cccnc1 [CBK265106]
Second: COc1cccc(C(=O)COC(=O)c2cc(-c3ccccc3)nc3ccc(Br)cc23)c1 [CBK265143]
The viability at 28.5 h, 10 µM of the first is higher: 101% for the first, 94.4% for the second.

First: COc1cc(NC(=O)CN2C(=O)c3ccc([N+](=O)[O-])cc3C2=O)c(C(=O)O)cc1OC [CBK265109]
Second: COc1cc([N+](=O)[O-])ccc1NC(=O)CCN1C(=O)C2C3CCC(C3)C2C1=O (stereo not drawn) [CBK265141]
The viability at 28.5 h, 10 µM of the first is lower: 97.7% for the first, 99.3% for the second.

First: CCCC(=O)Nc1ccc(C(=O)Nc2ccccc2C(=O)O)cc1 [CBK265111]
Second: O=C(Nc1ccccc1C(=O)O)c1ccc(S(=O)(=O)N2CCCCC2)cc1 [CBK265174]
The viability at 28.5 h, 10 µM of the first is higher: 121% for the first, 103% for the second.

Going from `O=C(CN1C(=O)C2C3C=CC(C3)C2C1=O)OCC(=O)c1ccccc1` (stereo not drawn) [CBK265112] to `O=C(CN1C(=O)C2C3C=CC(C3)C2C1=O)NCc1ccco1` (stereo not drawn) [CBK265116], the viability at 28.5 h, 10 µM falls from 100% to 96.4%.

First: O=C(CCN1C(=O)C2C3CCC(C3)C2C1=O)OCC(=O)c1ccc(-c2ccccc2)cc1 (stereo not drawn) [CBK265113]
Second: O=C(O)c1ccc(NC(=O)C2CCN(S(=O)(=O)c3ccccc3)CC2)cc1 [CBK265181]
The viability at 28.5 h, 10 µM of the first is lower: 95.1% for the first, 110% for the second.

Compared with `CCOC(=O)C(C)N1C(=O)S/C(=C/c2ccc(Oc3ccc([N+](=O)[O-])cn3)cc2)C1=O` (stereo not drawn) [CBK265114], `CCOc1cc(/C=C2\SC(=N)NC2=O)ccc1OS(=O)(=O)c1ccc(NC(C)=O)cc1` [CBK265243] is higher in viability at 28.5 h, 10 µM: 93.9% for the first, 94% for the second.

Compared with `COc1ccc(NC(=O)Nc2ccc3nc(C)c(C)nc3c2)cc1` [CBK265120], `COCCNC(=O)Nc1ccc2nc(-c3ccccn3)c(-c3ccccn3)nc2c1` [CBK265151] is lower in viability at 28.5 h, 10 µM: 97.4% for the first, 89.9% for the second.

First: O=[N+]([O-])c1cc(CN2CCCCC2)c2cccnc2c1O [CBK265121]
Second: O=C(Nc1ccccc1[N+](=O)[O-])c1ccc(Cl)c(S(=O)(=O)N2CCC(C(=O)O)CC2)c1 [CBK265180]
The viability at 28.5 h, 10 µM of the first is lower: 86.3% for the first, 101% for the second.

Compared with `CCn1cc(C(=O)O)c(=O)c2cc(F)c(N3CCN(S(=O)(=O)c4ccc(C)cc4)CC3)cc21` [CBK265122], `O=C(/C=C/c1ccc(F)cc1)NCCc1ccc(S(=O)(=O)N2CCCC2)cc1` [CBK265227] is lower in viability at 28.5 h, 10 µM: 95.1% for the first, 81.8% for the second.

Compared with `O=C(O)c1ccc(COc2ccc3ccccc3c2/C=C2/NC(=O)N(c3ccccc3)C2=O)cc1` [CBK265124], `CCOc1cc(/C=C2/NC(=O)N(c3ccccc3)C2=O)cc(Cl)c1OCc1cccc(C(=O)O)c1` [CBK265160] is lower in viability at 28.5 h, 10 µM: 101% for the first, 92% for the second.

Compared with `COC(=O)C1=C(C)N(c2cccc(C(F)(F)F)c2)C(=O)/C1=C\c1ccc(C(=O)O)cc1` [CBK265129], `O=C(OCc1ccc(Cl)cc1)c1ccc2c(c1)C(=O)N(c1cccc([N+](=O)[O-])c1)C2=O` [CBK265188] is higher in viability at 28.5 h, 10 µM: 92.8% for the first, 109% for the second.

First: O=C(CSc1nnc(COc2ccccc2)n1-c1ccccc1)c1cccs1 [CBK265133]
Second: COc1ccc(-c2nnc(SCc3csc(Nc4ccccc4)n3)n2-c2ccccc2)cc1 [CBK265205]
The viability at 28.5 h, 10 µM of the first is higher: 99.3% for the first, 89.1% for the second.

Going from `Cc1n[nH]c(O)c1C(c1ccc(OC(=O)c2c(F)cccc2F)cc1)c1c(C)n[nH]c1O` [CBK265136] to `Cc1cccc(Nc2nc(N)nc(CC(=O)CSc3ccc(Cl)cc3)n2)c1` [CBK265204], the viability at 28.5 h, 10 µM rises from 101% to 104%.

First: COc1cc2c(cc1NC(=O)CSc1nc3ccccc3o1)oc1ccccc12 [CBK265154]
Second: COc1ccc(Cl)cc1NC(=O)CN(C1CCCCC1)S(=O)(=O)c1ccccc1 [CBK265159]
The viability at 28.5 h, 10 µM of the first is lower: 105% for the first, 108% for the second.

Going from `CN(C)S(=O)(=O)N1CCN(c2ccc([N+](=O)[O-])c(NC3CC3)c2)CC1` [CBK265158] to `Cn1c(SCC(=O)N2CCN(c3ccccc3)CC2)nnc1-c1cccc([N+](=O)[O-])c1` [CBK265209], the viability at 28.5 h, 10 µM rises from 87% to 105%.

First: O=C(NCCO)/C(=C\c1ccccc1)NC(=O)c1ccc(I)cc1 [CBK265162]
Second: O=C(O)c1ccc(NS(=O)(=O)c2ccc(NC(=O)c3ccccc3Cl)cc2)cc1 [CBK265184]
The viability at 28.5 h, 10 µM of the first is lower: 89.2% for the first, 93% for the second.

First: C=CCOc1ccc(C(=O)C2=C(O)C(=O)N(Cc3cccnc3)C2c2cccnc2)cc1 (stereo not drawn) [CBK265167]
Second: O=C(COC(=O)c1ccncc1)c1ccc(OC(=O)c2ccccc2)cc1 [CBK265169]
The viability at 28.5 h, 10 µM of the first is higher: 98% for the first, 87.3% for the second.

Going from `C/C(=C1/SC(=S)N(CCC(=O)O)C1=O)c1ccc(O)cc1` [CBK265171] to `Cc1ccc(S(=O)(=O)NCC(=O)Nc2ccc(C)cc2C(=O)c2ccccc2)cc1` [CBK265199], the viability at 28.5 h, 10 µM falls from 102% to 85.8%.

Compared with `O=C(c1ccccc1)c1ccc(NC(=O)c2ccccc2F)c(NC(=O)c2ccccc2F)c1` [CBK265183], `O=C(O)c1cccc(NC(=O)c2cccc(S(=O)(=O)N3CCc4ccccc4C3)c2)c1` [CBK265187] is higher in viability at 28.5 h, 10 µM: 93.2% for the first, 108% for the second.

First: O=C1c2ccccc2C(=O)N1CN(Cc1ccc2c(c1)OCO2)CN1C(=O)c2ccccc2C1=O [CBK265197]
Second: CC(=O)Nc1ccc(N2C(=O)CC(N3CCN(Cc4ccc5c(c4)OCO5)CC3)C2=O)cc1 (stereo not drawn) [CBK265217]
The viability at 28.5 h, 10 µM of the first is higher: 107% for the first, 106% for the second.

First: COC(=O)c1ccc(C2N(Cc3ccccc3)CCN2Cc2ccccc2)cc1 [CBK265201]
Second: COc1cc(C2N(Cc3ccccc3)CCCN2Cc2ccccc2)c([N+](=O)[O-])cc1OC [CBK265224]
The viability at 28.5 h, 10 µM of the first is lower: 87.3% for the first, 88.2% for the second.

First: Oc1ccc(/C=N/n2c(S)nnc2C(F)(F)F)cc1 [CBK265206]
Second: O=[N+]([O-])c1ccc(/C=N/n2c(S)nnc2COc2ccccc2)cc1 [CBK265240]
The viability at 28.5 h, 10 µM of the first is higher: 98.6% for the first, 91.5% for the second.

Going from `Clc1ccc(CN2CCN(Cc3ccc(Cl)cc3)C2c2ccncc2)cc1` [CBK265207] to `NS(=O)(=O)c1ccc(NC(=O)C2Cc3ccccc3CN2S(=O)(=O)c2ccc(F)cc2)cc1` (stereo not drawn) [CBK265208], the viability at 28.5 h, 10 µM falls from 104% to 103%.

Compared with `Sc1nnc(CSCc2ccccc2Cl)n1-c1ccccc1` [CBK265219], `COc1cccc(NC(=S)NCCc2ccccn2)c1` [CBK265245] is lower in viability at 28.5 h, 10 µM: 100% for the first, 96.9% for the second.

Compared with `CN1CCN(C(S)=Nc2ccc(S(N)(=O)=O)cc2)CC1` [CBK265223], `CC(=O)Nc1ccc(S(=O)(=O)N2CCCCC2C(=O)O)cc1` (stereo not drawn) [CBK265241] is higher in viability at 28.5 h, 10 µM: 92.5% for the first, 102% for the second.

Work on `Cn1nc([N+](=O)[O-])nc1OCc1nc2ccccc2n1C` [CBK265247] yielded a viability at 28.5 h, 10 µM of 88.9%.

Same assay, conditions: human, hela cells, % viability, bulk resorufin, single well

First: O=C1NC(=S)N(c2ccccc2F)C(=O)/C1=C/NCc1ccco1 [CBK265126]
Second: CCOC(=O)C1CCN(/C=C2/C(=O)NC(=S)N(c3ccccc3F)C2=O)CC1 [CBK265142]
The viability at 28.5 h, 10 µM of the first is lower: 86.6% for the first, 102% for the second.

First: O=C1NC(=O)C(=Cc2cccc(OC(F)(F)C(F)F)c2)C(=O)N1 [CBK265150]
Second: CCNC(=S)N1CCN(CCNC=C2C(=O)NC(=O)NC2=O)CC1 [CBK265228]
The viability at 28.5 h, 10 µM of the first is lower: 108% for the first, 111% for the second.

For `O=C(Cn1cc(/C=C2\C(=O)NC(=S)N(c3cccc(F)c3)C2=O)c2ccccc21)Nc1ccccc1` [CBK265152], the viability at 28.5 h, 10 µM was 106%.
